# Test results from publication PMC9331863 (Antibiotics, 2022).
# Like-named read-outs stand apart in the source and are kept apart here.
# Key:
# [1] = cited from earlier work
# [2] = Population pharmacokinetic modelling of dalbavancin plasma concentrations (TDM) in patients; conditions: for Q, inter-compartmental clearance / V1, central volume of distribution / V2, peripheral volume of distribution: typical value (%RSE)
# Description: The study was approved by the local Ethics Committee (registration number 897/2021/Oss/AOUBo). Signed informed consent was waived due to the retrospective and observational nature of the investigation according to hospital agreements.
# The dose amount (1000 mg or 1500 mg) was arbitrarily decided by the infectious diseases consultant at each patient center. The decision to administer any additional doses was taken in relation to the clinical evaluation of disease progression after at least 4 weeks from the administration of the second dose and it was based on the patient’s physical examination and on the trend of inflammatory biomarkers.
# Blood samples were collected at different time-points after the second dose and sent to our lab for analysis. […] The lower limit of quantification was 0.5 mg/L.
# At a first stage, a basic model was developed, by comparing one-, two- and three-compartment models with linear elimination. All individual parameters were log-normally distributed. Exponential random effects were assumed to describe inter-individual variability. Correlations between random effects were tested in the variance–covariance matrix and implemented into the structural model accordingly. Residual variability was tested according to three different error models (constant, proportional and combined error model).
# The following covariates were tested on the PK parameters of the base model: age, gender, weight, height, serum albumin, serum creatinine and CLCR. The parameter–covariate relationships were modeled as additive or proportional shifts from the reference category for binary covariates, whereas the effect of continuous covariates was modeled using a power function. A covariate was included in the model according to the results of the likelihood ratio test (LRT) and if a reduction in the BIC and a decrease in the interpatient variability of the fixed-effect parameters were obtained. Descriptions of the pharmacokinetic model building and covariate analysis are reported in the Supplementary Materials.
# [3] = cited from earlier work; remark: listed apart in the source
# Description: Data were retrieved from registrative phase II/III clinical trials.
# [4] = real-world use beyond approved indications, outpatient antimicrobial treatment; cited from earlier work
# [5] = median (min–max) of population, 69 patients, two-compartment final model
# [6] = three-compartment model, 703 patients with ABSSSI, ref Carrothers et al. [12]
compound,measurement,setting,value
CN[C@H]1C(=O)N[C@@H]2Cc3ccc(cc3)Oc3cc4cc(c3O[C@@H]3O[C@H](C(=O)O)[C@@H](O)[C@H](O)[C@H]3NC(=O)CCCCCCCCC(C)C)Oc3ccc(cc3Cl)[C@@H](O)[C@@H]3NC(=O)[C@H](NC(=O)[C@@H]4NC(=O)[C@@H](NC2=O)c2cc(cc(O)c2Cl)Oc2cc1ccc2O)c1ccc(O)c(c1)-c1c(O[C@H]2O[C@H](CO)[C@@H](O)[C@H](O)[C@@H]2O)cc(O)cc1[C@@H](C(=O)NCCCN(C)C)NC3=O [dalbavancin],penetration rate into bone tissue,[1],13.1%
same,"Q, inter-compartmental clearance",[2]; base model,0.026 (17.9) L/h
same,"V1, central volume of distribution",[2]; base model,6.15 (4.79) L
same,"V2, peripheral volume of distribution",[2]; base model,10.51 (13.7) L
same,"Q, inter-compartmental clearance",[2]; final model,0.026 (18.1) L/h
same,"V1, central volume of distribution",[2]; final model,6.14 (5.26) L
same,"V2, peripheral volume of distribution",[2]; final model,9.52 (19.0) L
same,"CL, total body clearance","[2]; human, in vivo",0.029 (11.6) L/h
same,Vd,"[2]; human, in vivo",15.7 L
same,clearance,"[2]; human, in vivo, CL, total body clearance",0.683 mL/min
same,clearance,"[2]; human, in vivo, population CL",0.717 mL/min
same,population V1,[2]; [5],6.21 (5.10–7.19) L
same,population V2,[2]; [5],9.48 (7.60–11.89) L
same,elimination half-life,[3],> 180 h
same,population CL,[3]; [6],0.053 L/h
same,total V,[3]; [6],15.0 L
same,population CL,"[3]; two-compartment model, 532 patients (ABSSSI, bloodstream infections), ref Buckwalter et al. [11]",0.057 L/h
same,total V,"[3]; two-compartment model, 532 patients, ref Buckwalter et al. [11]",15.9 L
same,overall clinical success rate,[4],greater than 80%
